US10918645B2 (LIFEARC, priority 2016, dated 2021)

Experiments:
Format in all cases: biochemical
Conditions in all cases: 1 μM inhibitor concentration
[1] = biological target: IGF-1R (Homo sapiens (Human), UniProt P08069); test: IGF-1R kinase selectivity assay
Experimental: (§1) IGF-1R (5-20 mU diluted in 50 mM Tris pH 7.5, 0.1 mM EGTA, 1 mg/ml BSA) is assayed against a substrate peptide ([…]) in a final volume of 25.5 μl containing 50 mM Tris pH 7.5, 300 µM substrate peptide, 10 mM magnesium acetate and 0.005 mM [33P-g-ATP] (50-1000 cpm/pmole) and incubated for 30 min at room temperature. Assays are stopped by addition of 5 μl of 0.5 M (3%) orthophosphoric acid and then harvested onto P81 Unifilter plates with a wash buffer of 50 mM orthophosphoric acid.

[2] = biological target: IKKb (Homo sapiens (Human), UniProt O14920); test: IKKb kinase selectivity assay
Experimental: (§2) 5-20 mU of IKKb (diluted in 50 mM Tris (pH 7.5), 0.1 mM EGTA, 1 mg/ml BSA, 0.1%, b-Mercaptoethanol) is assayed against substrate peptide ([…]) in a final volume of 25.51 μl containing 50 mM Tris (pH 7.5), 0.1 mM EGTA, 0.1%, b-Mercaptoethanol, 300 μM substrate peptide, 10 mM magnesium acetate and 0.005 mM [33P-g-ATP](500-1000 cpm/pmole) and incubated for 30 mins at room temperature. Assays are stopped by addition of 5 μl of 0.5M (3%) orthophosphoric acid. Assays are harvested onto P81 Unifilter plates using a wash buffer of 50 mM orthophosphoric acid.

[3] = biological target: PKCz (Homo sapiens (Human), UniProt Q05513); test: PKCz kinase selectivity assay
Experimental: PKC zeta (5-20 mU diluted in 50 mM Tris pH 7.5, 0.1 mM EGTA, 0.1% b-mercaptoethanol, 1 mg/ml BSA, 100 μM Vanadate) is assayed against a substrate peptide ([…]) in a final volume of 25.5 μl containing 50 mM Tris pH 7.5, 0.05% b-mercaptoethanol, […], 300 μM substrate peptide, 10 mM magnesium acetate and 0.005 mM [33P-g-ATP] (50-1000 cpm/pmole) and incubated for 30 min at room temperature. Assays are stopped by addition of 5 μl of 0.5 M (3%) orthophosphoric acid and then harvested onto P81 Unifilter plates with a wash buffer of 50 mM orthophosphoric acid.

[4] = biological target: EPH-A2 (Homo sapiens (Human), UniProt P29317); test: EPH-A2 kinase selectivity assay
Experimental: EPH-A2 (5-20 mU diluted in 50 mM Tris pH 7.5, 0.1 mM EGTA, 1 mg/ml BSA) is assayed against a substrate peptide (Poly Glut Tyr) in a final volume of 25.5 μl containing 50 mM Tris pH 7.5, 0.1 mg/ml substrate peptide, 10 mM magnesium acetate and 0.05 mM [33P-g-ATP] (50-1000 cpm/pmole) and incubated for 30 min at room temperature. Assays are stopped by addition of 5 μl of 0.5 M (3%) orthophosphoric acid and then harvested onto P81 Unifilter plates with a wash buffer of 50 mM orthophosphoric acid.

[5] = biological target: TBK1 (Homo sapiens (Human), UniProt Q9UHD2); test: TBK1 kinase selectivity assay
Experimental: as §1, with “TBK1 (DU12569)” for “IGF-1R”, “μM” for “µM”, “0.05” for “0.005”

[6] = biological target: CAMKKb (Homo sapiens (Human), UniProt Q96RR4); test: CAMKKb kinase selectivity assay
Experimental: as §2, with “mU of CAMKKb (diluted in” for “mU of IKKb (diluted in”, “volume of 25.5 μl containing” for “volume of 25.51 μl containing”, “mM EGTA, 0.5 mM CaCl2, 0.3 μM calmodulin, 0.1%, b-Mercaptoethanol,” for “mM EGTA, 0.1%, b-Mercaptoethanol,”, “acetate and 0.02 mM [33P-g-ATP](500-1000” for “acetate and 0.005 mM [33P-g-ATP](500-1000”

[7] = biological target: MINK1 (Homo sapiens (Human), UniProt Q8N4C8); test: MINK1 kinase selectivity assay
Experimental: (§3) MINK1 (5-20 mU diluted in 50 mM Tris pH 7.5, 0.1 mM EGTA, 0.1% β-mercaptoethanol, 1 mg/ml BSA) is assayed against MBP in a final volume of 25.5 μl containing 50 mM Tris pH 7.5, 0.1 mM EGTA, 0.33 mg/ml MBP, 10 mM magnesium acetate and 0.05 mM [33P-γ-ATP] (50-1000 cpm/pmole) and incubated for 30 min at room temperature. Assays are stopped by addition of 5 μl of 0.5 M (3%) orthophosphoric acid and then harvested onto P81 Unifilter plates with a wash buffer of 50 mM orthophosphoric acid.

[8] = biological target: IRAK4 (Homo sapiens (Human), UniProt Q9NWZ3); test: IRAK4 kinase selectivity assay
Experimental: as §3, with “IRAK4” for “MINK1”, “0-mercaptoethanol,” for “β-mercaptoethanol,”, “0.02” for “0.05”

Sequence of MINK1 (Q8N4C8 whole entry, species assumed): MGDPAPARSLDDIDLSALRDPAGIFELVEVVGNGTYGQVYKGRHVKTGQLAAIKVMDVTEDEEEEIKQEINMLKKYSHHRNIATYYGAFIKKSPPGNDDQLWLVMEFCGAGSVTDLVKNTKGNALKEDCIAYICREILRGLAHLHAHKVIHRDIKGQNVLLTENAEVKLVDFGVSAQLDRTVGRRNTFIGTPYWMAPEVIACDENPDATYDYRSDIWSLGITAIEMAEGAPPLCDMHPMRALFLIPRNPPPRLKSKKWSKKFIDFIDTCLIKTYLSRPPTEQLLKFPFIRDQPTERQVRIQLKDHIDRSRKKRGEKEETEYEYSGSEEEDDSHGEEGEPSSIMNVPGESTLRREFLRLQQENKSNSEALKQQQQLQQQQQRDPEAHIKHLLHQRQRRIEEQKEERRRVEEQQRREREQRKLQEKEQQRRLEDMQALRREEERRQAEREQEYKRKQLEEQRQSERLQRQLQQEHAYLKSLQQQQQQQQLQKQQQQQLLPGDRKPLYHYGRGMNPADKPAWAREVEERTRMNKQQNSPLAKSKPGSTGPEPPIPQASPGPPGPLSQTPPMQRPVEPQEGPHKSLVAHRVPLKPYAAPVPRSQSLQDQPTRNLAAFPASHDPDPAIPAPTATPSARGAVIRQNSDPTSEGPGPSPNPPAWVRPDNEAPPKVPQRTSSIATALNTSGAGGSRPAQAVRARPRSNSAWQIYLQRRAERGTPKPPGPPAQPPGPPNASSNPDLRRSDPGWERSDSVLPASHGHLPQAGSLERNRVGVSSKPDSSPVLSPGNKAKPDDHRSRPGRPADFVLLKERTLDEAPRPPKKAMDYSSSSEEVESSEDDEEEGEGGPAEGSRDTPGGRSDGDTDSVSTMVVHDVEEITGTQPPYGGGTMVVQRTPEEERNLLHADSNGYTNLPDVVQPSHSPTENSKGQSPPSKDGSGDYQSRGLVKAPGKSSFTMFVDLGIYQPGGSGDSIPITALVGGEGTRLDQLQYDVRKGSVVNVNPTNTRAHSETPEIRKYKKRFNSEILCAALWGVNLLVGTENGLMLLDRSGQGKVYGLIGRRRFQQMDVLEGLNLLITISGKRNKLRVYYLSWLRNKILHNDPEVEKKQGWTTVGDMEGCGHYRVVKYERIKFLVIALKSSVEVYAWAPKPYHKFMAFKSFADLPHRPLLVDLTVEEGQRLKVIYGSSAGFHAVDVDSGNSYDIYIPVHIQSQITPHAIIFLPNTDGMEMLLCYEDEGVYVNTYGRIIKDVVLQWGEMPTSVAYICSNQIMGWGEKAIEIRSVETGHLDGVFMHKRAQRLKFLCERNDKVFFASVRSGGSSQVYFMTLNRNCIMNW
Sequence of IRAK4 (Q9NWZ3 whole entry, species assumed): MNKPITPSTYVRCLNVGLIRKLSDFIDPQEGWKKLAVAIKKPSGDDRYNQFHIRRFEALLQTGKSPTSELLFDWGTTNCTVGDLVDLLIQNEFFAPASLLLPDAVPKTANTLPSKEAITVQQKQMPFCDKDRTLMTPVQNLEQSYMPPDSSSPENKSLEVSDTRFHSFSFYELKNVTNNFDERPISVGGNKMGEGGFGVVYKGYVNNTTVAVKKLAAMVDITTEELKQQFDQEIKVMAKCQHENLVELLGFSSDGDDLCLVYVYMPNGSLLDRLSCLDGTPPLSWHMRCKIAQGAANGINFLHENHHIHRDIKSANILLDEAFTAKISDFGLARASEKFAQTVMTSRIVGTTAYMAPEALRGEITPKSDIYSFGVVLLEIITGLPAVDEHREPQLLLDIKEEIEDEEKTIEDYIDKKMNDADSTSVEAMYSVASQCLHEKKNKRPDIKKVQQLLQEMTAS
Sequence of EPH-A2 (P29317 24-976, species assumed): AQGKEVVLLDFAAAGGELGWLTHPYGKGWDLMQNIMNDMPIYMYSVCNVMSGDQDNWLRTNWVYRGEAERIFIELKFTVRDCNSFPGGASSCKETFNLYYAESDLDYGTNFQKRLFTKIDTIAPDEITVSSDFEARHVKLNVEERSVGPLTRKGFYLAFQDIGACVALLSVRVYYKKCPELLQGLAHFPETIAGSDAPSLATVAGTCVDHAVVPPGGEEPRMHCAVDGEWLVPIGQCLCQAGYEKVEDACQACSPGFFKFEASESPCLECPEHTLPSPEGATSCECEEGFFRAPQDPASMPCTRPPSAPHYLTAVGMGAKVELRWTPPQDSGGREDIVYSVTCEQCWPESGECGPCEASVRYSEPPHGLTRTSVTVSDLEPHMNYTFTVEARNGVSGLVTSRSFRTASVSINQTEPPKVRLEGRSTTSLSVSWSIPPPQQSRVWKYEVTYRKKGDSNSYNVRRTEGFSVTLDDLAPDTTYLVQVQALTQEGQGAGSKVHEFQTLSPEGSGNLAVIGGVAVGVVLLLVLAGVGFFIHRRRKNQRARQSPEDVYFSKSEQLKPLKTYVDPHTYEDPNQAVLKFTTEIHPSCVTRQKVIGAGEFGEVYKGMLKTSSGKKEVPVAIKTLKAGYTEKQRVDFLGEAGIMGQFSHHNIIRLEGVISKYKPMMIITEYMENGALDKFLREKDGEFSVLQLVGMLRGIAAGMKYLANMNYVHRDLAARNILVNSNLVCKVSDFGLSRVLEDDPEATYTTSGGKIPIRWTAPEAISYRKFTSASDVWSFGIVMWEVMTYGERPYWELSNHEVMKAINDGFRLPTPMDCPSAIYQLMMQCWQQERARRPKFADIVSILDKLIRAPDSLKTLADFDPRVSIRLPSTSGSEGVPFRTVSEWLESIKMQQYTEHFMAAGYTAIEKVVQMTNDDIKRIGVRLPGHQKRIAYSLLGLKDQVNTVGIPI
Sequence of TBK1 (Q9UHD2 whole entry, species assumed): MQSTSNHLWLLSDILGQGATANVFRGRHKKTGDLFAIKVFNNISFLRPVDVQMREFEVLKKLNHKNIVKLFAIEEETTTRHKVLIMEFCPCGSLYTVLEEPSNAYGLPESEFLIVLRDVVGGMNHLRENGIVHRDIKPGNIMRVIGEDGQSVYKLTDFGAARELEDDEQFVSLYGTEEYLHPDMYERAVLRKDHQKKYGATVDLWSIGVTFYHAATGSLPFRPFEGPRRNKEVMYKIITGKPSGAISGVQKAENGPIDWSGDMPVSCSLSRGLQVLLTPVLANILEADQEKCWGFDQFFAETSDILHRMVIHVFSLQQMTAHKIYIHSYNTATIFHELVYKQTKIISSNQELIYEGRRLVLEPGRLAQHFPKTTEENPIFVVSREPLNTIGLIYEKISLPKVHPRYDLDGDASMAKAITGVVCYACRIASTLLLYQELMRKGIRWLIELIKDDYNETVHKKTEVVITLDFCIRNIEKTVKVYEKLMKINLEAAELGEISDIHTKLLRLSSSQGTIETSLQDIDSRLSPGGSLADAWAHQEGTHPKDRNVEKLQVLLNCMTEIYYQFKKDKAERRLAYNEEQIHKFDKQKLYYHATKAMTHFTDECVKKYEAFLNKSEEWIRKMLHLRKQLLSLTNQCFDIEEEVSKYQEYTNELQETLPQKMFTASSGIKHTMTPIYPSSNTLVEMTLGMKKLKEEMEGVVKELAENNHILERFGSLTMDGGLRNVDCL
Sequence of PKCz (Q05513 whole entry): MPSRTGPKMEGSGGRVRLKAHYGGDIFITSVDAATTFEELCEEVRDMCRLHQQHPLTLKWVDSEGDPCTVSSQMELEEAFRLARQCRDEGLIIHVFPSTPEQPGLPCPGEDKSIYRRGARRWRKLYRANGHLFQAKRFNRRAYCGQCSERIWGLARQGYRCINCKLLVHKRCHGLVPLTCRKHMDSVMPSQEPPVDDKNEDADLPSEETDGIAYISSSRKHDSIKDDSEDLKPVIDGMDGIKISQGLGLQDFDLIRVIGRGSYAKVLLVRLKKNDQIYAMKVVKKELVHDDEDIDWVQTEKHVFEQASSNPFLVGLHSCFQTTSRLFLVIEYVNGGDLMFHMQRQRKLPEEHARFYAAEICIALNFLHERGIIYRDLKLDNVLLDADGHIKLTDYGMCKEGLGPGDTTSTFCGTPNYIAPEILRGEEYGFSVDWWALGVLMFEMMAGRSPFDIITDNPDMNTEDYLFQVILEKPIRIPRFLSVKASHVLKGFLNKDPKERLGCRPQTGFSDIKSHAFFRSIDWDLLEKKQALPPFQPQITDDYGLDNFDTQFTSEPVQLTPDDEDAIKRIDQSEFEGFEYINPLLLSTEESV
Sequence of IKKb (O14920 whole entry, species assumed): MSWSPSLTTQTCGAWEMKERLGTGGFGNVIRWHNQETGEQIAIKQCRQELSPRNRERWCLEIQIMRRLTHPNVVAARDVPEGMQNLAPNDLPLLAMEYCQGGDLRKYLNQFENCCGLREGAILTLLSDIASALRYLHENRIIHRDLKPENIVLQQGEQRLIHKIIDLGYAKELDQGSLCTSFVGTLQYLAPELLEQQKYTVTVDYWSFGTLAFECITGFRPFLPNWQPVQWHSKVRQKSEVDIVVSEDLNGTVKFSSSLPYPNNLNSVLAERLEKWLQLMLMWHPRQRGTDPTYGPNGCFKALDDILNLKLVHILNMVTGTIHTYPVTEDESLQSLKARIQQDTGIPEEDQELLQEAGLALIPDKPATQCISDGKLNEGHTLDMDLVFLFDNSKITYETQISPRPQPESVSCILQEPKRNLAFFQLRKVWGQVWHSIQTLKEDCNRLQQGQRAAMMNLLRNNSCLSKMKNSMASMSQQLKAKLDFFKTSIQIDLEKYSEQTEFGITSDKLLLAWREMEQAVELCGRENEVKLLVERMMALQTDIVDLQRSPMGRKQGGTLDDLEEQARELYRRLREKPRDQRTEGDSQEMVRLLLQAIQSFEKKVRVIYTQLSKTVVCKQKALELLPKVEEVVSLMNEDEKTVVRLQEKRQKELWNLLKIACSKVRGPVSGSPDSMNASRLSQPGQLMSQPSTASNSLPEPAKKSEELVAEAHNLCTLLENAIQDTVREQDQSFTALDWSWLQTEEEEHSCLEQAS

SMILES | percentage inhibition of IGF-1R [1] | percentage inhibition of IKKb [2] | percentage inhibition of PKCz [3] | percentage inhibition of EPH-A2 [4] | percentage inhibition of TBK1 [5] | percentage inhibition of CAMKKb [6] | percentage inhibition of MINK1 [7] | percentage inhibition of IRAK4 [8]
CC(C)n1ncc2c1CN(C1CCN(C)CC1)c1nccc3[nH]nc-2c13 [Example 68] | 0 percentage | 4 percentage | 1 percentage | 0 percentage | 5 percentage | 0 percentage | 7 percentage | 14 percentage
c1cc2[nH]nc3c2c(n1)N(C1CCC1)CCC3 [Example 22, 6-cyclobutyl-6,7,8,9-tetrahydro-2H-1,2,5,6-tetraazabenzo[cd]azulene] | 9 percentage | 2 percentage | 0 percentage | 0 percentage | 0 percentage | 5 percentage | 0 percentage | 13 percentage
c1cc2[nH]nc3c2c(n1)N(C1CCCC1)CCC3 [Example 23, 6-cyclopentyl-6,7,8,9-tetrahydro-2H-1,2,5,6-tetraazabenzo[cd]azulene] | 2 percentage | 0 percentage | 0 percentage | 0 percentage | 0 percentage | 7 percentage | 0 percentage | 0 percentage
CN1CCC(N2Cc3ccccc3-c3n[nH]c4ccnc2c34)CC1 [Example 55] | 8 percentage | 6 percentage | 0 percentage | 0 percentage | 5 percentage | 0 percentage | 12 percentage | 9 percentage
c1cc2[nH]nc3c2c(n1)N(C1CCOCC1)CCC3 [Example 29, 6-(tetrahydro-2H-pyran-4-yl)-6,7,8,9-tetrahydro-2H-1,2,5,6-tetraazabenzo[cd]azulene] | 9 percentage | 0 percentage | 0 percentage | 0 percentage | 0 percentage | 0 percentage | 0 percentage | 15 percentage
